Data as given in paper PMC11065314, “Identification of compounds that cause axonal dieback without cytotoxicity in dorsal root ganglia explants and intervertebral disc cells with potential to treat pain via denervation” (PLOS ONE, 2024).
Several values for one entry are separate records, joined by “and”; a condition that tells them apart may be missing. Equal values may be shown once. Where a name gives a salt, the structure may show the parent alone.

Experiments:
[1] = Quantification of viable NP cells (LIVE/DEAD staining); type: cell-based, human; details: both sexes, human, human nucleus pulposus (NP) cells; 10 to 500 nM, day 3 post-treat; read-out: Percentage of viable cells
Experimental: (§1) Nucleus pulposus (NP) cells are native matrix-producing cells at the core of intervertebral discs. To repurpose axonal dieback compounds to denervate aberrant nerve fibers in discs related to chronic LBP, the cytocompatibility of these compounds with NP cells must be evaluated. Human NP cells (Sciencell, 4800) from donor 1 (Lot #5954) and donor 2 (Lot# 21579) were cultured according to previously established protocol in our lab adapted from manufacturer’s instructions. Briefly, passage three cells from both donors were expanded in Poly-L-lysine (PLL) (Sciencell, 413) coated T75 flasks. Cells were then lifted and reseeded at 5,000 cells/cm^2 onto two PLL-coated 48-well plates (Greiner Bio-One, 677180) and allowed to attach overnight before treating with Pyr or Vcr. One plate was used for LIVE/DEAD staining and the other plate was used for AlamarBlue assay as described below. Complete NP cell media (Sciencell, 4801) containing basal media supplemented with 1% penicillin-streptomycin, 1% growth supplement and 2% FBS were used for maintaining cells in culture. To mimic the hypoxic disc environment, NP cells were cultured in a hypoxia chamber (Stem Cell Technologies, 27310) with 5% CO2, 3.5% O2, 91.5% N2 (Airgas) during the entire culture and treatment incubation period.
(§2) Pyr stock solution was diluted in complete NP media to achieve final concentrations of 500 μM, 1 mM and 2 mM Pyr. 16.9 μg/mL and 169 μg/mL Vcr stock solutions were prepared in 1X PBS then diluted in complete NP media to achieve final concentrations of 10, 25, 50, 100 nM and 200, 500 nM, respectively. Cells were incubated with 250 μL of final treatment solutions in duplicate wells per donor for three days. Cells in negative control group were incubated with 250 μL of complete NP media with 0.55% v/v 1X PBS as solvent control. On day 3 post-treatment, brightfield images at 4X magnification were taken using a BioTek Cytation1 Plate Imager (Agilent) to verify cell proliferation and observe cell morphology. Three experimental replicates were performed for each cell donor.
(§3) On day 3 of incubation with drug, media treatment solutions were removed from each well and cells were carefully rinsed with 200 μL of sterile 1X PBS to remove excess media. NP cells were stained with 150 μL of 2 μM Calcein AM and 6 μM EtHD-1 solution from LIVE/DEAD Viability/Cytotoxicity Kit (Thermo Fisher Scientific, L3224) for 30 minutes at room temperature protected from light. After staining, cells were gently rinsed with 200 μL sterile 1X PBS to remove excess staining solution. Excitation and emission wavelengths for live cell fluorescence is 495 and 515 nm and dead cell fluorescence is 495 and 635 nm. Using a BioTek Cytation1 Plate Imager (Agilent), GFP filter cube (Agilent, 1225101, ex: 451.5–486.5 nm, em: 505.5–544.5 nm) and RFP filter cubes (Agilent, 1225103, ex: 511-551nm, em: 573–613 nm), fluorescent images at 4X magnification of four regions per well were taken. Gen5 v3.11 software (Agilent) was used to count green (live) and orange (dead) cells in fluorescent images. Dead NP cell staining was verified and evident by positive EtHD-1 orange staining in kill control wells where cells were treated with 70% EtOH for 10 minutes (S4 Fig). Percentage of live cells were calculated by calculating the percentage of live cells over total cell counts as shown in Eq 3.
(§4) Cellviability(%)=Livecellcounts/Livecellcounts+Deadcellcounts×100% (3)

Human NP cells = assay: as above; type: cell-based
Experimental: as §1, §2, §3, §4

adult rat DRG neurons = system: adult rat DRG neurons; parameters: method as in PMID 32388569; details: below 1000 nM; cited from earlier work

CC[C@]1(O)C[C@H]2CN(CCc3c([nH]c4ccccc34)[C@@](C(=O)OC)(c3cc4c(cc3OC)N(C=O)[C@H]3[C@@](O)(C(=O)OC)[C@H](OC(C)=O)[C@]5(CC)C=CCN6CC[C@]43[C@@H]65)C2)C1 [Vcr, vincristine sulfate]
viability at 3 days [1]: > 81% | Percent live (%) (Human NP cells; 10 nM, donor 1, day 3, single wells (Exp, Rep)): 90.3134% and 98.5594% and 99.6198% and 83.3102% and 99.7603% and 99.2074% | Percent live (%) (Human NP cells; 25 nM, donor 1, day 3, single wells (Exp, Rep)): 89.2996% and 89.1566% and 99.4877% and 99.866% and 98.4016% and 98.5294% | Percent live (%) (Human NP cells; 25 nM, donor 2, day 3, single wells (Exp, Rep)): 97.6127% and 96.3918% and 89.1374% and 87.5648% and 97.9899% and 92.8571% | Percent live (%) (Human NP cells; 50 nM, donor 1, day 3, single wells (Exp, Rep)): 99.536% and 94.3223% and 95.1923% and 99.2108% and 99.6933% and 99.3363% | Percent live (%) (Human NP cells; 50 nM, donor 2, day 3, single wells (Exp, Rep)): 98.5163% and 97.4555% and 94.0054% and 88.1057% and 96.8127% and 94.0758% | Percent live (%) (Human NP cells; 100 nM, donor 1, day 3, single wells (Exp, Rep)): 98.9571% and 99.7976% and 95.6589% and 96.3247% and 98.866% and 99.2797% | Percent live (%) (Human NP cells; 100 nM, donor 2, day 3, single wells (Exp, Rep)): 99.5495% and 99.5885% and 95.3125% and 93.5614% and 98.018% and 96.1078% | Percent live (%) (Human NP cells; 200 nM, donor 1, day 3, single wells (Exp, Rep)): 96.7883% and 99.5461% and 93.2203% and 99.7674% and 98.7402% and 97.893% | Percent live (%) (Human NP cells; 200 nM, donor 2, day 3, single wells (Exp, Rep)): 98.9101% and 97.7221% and 91.7808% and 91.6988% and 97.8182% and 96.8701% | Percent live (%) (Human NP cells; 500 nM, donor 1, day 3, single wells (Exp, Rep)): 99.2% and 97.9245% and 96.5986% and 97.28% and 92.5651% and 91.0506% | Cytotoxicity (adult rat DRG neurons): does not induce cytotoxicity
